Legend:
Set-up in all cases: key: 0: normal development; 1: Less damaged; 2: Slightly damaged; 3: Moderately damaged; 4: Severely damaged; 5: All killed
corn [1] = test: Soil treatment test for upland field; format: in vivo; conditions: 500 g/ha, glass house 25° C., 3 weeks
Procedure, shortened: (§1)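 Damage rated on a 0–5 scale (0 normal development, 5 all killed) after 3 weeks in a glasshouse at about 25 °C. Compounds applied as a water-diluted wettable powder (0.05% surfactant) sprayed at 500 g/ha onto soil surface over freshly sown seeds in alluvial Ube soil.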

cotton [2] = test: Soil treatment test for upland field; format: in vivo; conditions: 500 g/ha, glass house 25° C., 3 weeks
Procedure, shortened: as §1

solgum [3] = test: Soil treatment test for upland field; format: in vivo; conditions: 500 g/ha, glass house 25° C., 3 weeks
Procedure, shortened: as §1

soybean [4] = test: Soil treatment test for upland field; format: in vivo; conditions: 500 g/ha, glass house 25° C., 3 weeks
Procedure, shortened: as §1

sugar beat [5] = test: Soil treatment test for upland field; format: in vivo; conditions: 500 g/ha, glass house 25° C., 3 weeks
Procedure, shortened: as §1

wheat [6] = test: Soil treatment test for upland field; format: in vivo; conditions: 500 g/ha, glass house 25° C., 3 weeks
Procedure, shortened: as §1

Large crabgrass [7] = test: Soil treatment test for upland field; format: in vivo, Digitaria adscendens; conditions: 500 g/ha, glass house 25° C., 3 weeks
Procedure, shortened: as §1

green foxtail [8] = test: Soil treatment test for upland field; format: in vivo, Setaria viridis; conditions: 500 g/ha, glass house 25° C., 3 weeks
Procedure, shortened: as §1

blackgrass [9] = test: Soil treatment test for upland field; format: in vivo, Alopecurus aegualis; conditions: 500 g/ha, glass house 25° C., 3 weeks
Procedure, shortened: as §1

annual bluegrass [10] = test: Soil treatment test for upland field; format: in vivo, Poa annua; conditions: 500 g/ha, glass house 25° C., 3 weeks
Procedure, shortened: as §1

common lambsquartes [11] = test: Soil treatment test for upland field; format: in vivo, Chenopodium album; conditions: 500 g/ha, glass house 25° C., 3 weeks
Procedure, shortened: as §1

livid amaranth [12] = test: Soil treatment test for upland field; format: in vivo, Amaranthus lividus; conditions: 500 g/ha, glass house 25° C., 3 weeks
Procedure, shortened: as §1

velvetleaf [13] = test: Soil treatment test for upland field; format: in vivo, Abutilon theophrasti; conditions: 500 g/ha, glass house 25° C., 3 weeks
Procedure, shortened: as §1

corn [14] = test: Foliar spread test for upland field; format: in vivo; conditions: foliar spray 500 ppm, 3 weeks, rank vs non-treated
Description: (§2) (0: normal development, 1: Less damaged, 2: Slightly damaged, 3: Moderately damaged, 4: Severely damaged, 5: All killed).
(§3) Wagner pots, each having an area of 1/5000 are, were packed with volcanic ash soil and then each seed of corn, soybean, cotton, wheat, solgum, sugar beat, Large crabgrass, barnyardgrass, green foxtail, blackgrass, annual bluegrass, common lambsquartes, livid amaranth, velvetleaf and morning glory was planted, covered with soil and grown in a glass house at an average temperature of […] for about 2 weeks.
(§4) Each wettable powder of the desired compounds (I) shown in Table 1 prepared in accordance with Example 2 was diluted to 500 ppm with water containing a surfactant (0.5%) and then uniformly sprayed on the above respective plants.
(§5) After these plants were controlled in a glass house at an average temperature of 25° C. for 3 weeks, the herbicidal effects thereof were investigated.
(§6) The herbicidal effects were evaluated according to the evaluation method described in the above (1).

solgum [15] = test: Foliar spread test for upland field; format: in vivo; conditions: foliar spray 500 ppm, 3 weeks, rank vs non-treated
Description: as §2, §3, §4, §5, §6

soybean [16] = test: Foliar spread test for upland field; format: in vivo; conditions: foliar spray 500 ppm, 3 weeks, rank vs non-treated
Description: as §2, §3, §4, §5, §6

sugar beat [17] = test: Foliar spread test for upland field; format: in vivo; conditions: foliar spray 500 ppm, 3 weeks, rank vs non-treated
Description: as §2, §3, §4, §5, §6

wheat [18] = test: Foliar spread test for upland field; format: in vivo; conditions: foliar spray 500 ppm, 3 weeks, rank vs non-treated
Description: as §2, §3, §4, §5, §6

green foxtail [19] = test: Foliar spread test for upland field; format: in vivo, Setaria viridis; conditions: foliar spray 500 ppm, 3 weeks, rank vs non-treated
Description: as §2, §3, §4, §5, §6

common lambsquartes [20] = test: Foliar spread test for upland field; format: in vivo, Chenopodium album; conditions: foliar spray 500 ppm, 3 weeks, rank vs non-treated
Description: as §2, §3, §4, §5, §6

livid amaranth [21] = test: Foliar spread test for upland field; format: in vivo, Amaranthus lividus; conditions: foliar spray 500 ppm, 3 weeks, rank vs non-treated
Description: as §2, §3, §4, §5, §6

velvetleaf [22] = test: Foliar spread test for upland field; format: in vivo, Abutilon theophrasti; conditions: foliar spray 500 ppm, 3 weeks, rank vs non-treated
Description: as §2, §3, §4, §5, §6

barnyardgrass [23] = test: Soil treatment test for upland field; format: in vivo, Echinochloa crusgalli; conditions: 500 g/ha, glass house 25° C., 3 weeks
Procedure, shortened: as §1

morning glory = test: Foliar spread test for upland field; format: in vivo, Ipomoea spps.; conditions: foliar spray 500 ppm, 3 weeks, rank vs non-treated
Description: as §2, §3, §4, §5, §6

young rice plant = test: Herbicidal test for paddy field; format: in vivo; conditions: paddy field pot, 500 g/ha dropwise at 1.5 leaf stage of barnyardgrass, 3 weeks, rank vs non-treated
Procedure: (§7) Wagner pots, each having an area of 1/5000 are, were packed with Ube soil (alluvial soil) and planted with seeds or tubers of young rice plant, barnyardgrass, bulrush, flat sedge and monochoria. Then, the pots were filled with water to a depth of 3 cm.
(§8) Each wettable powder of the desired compounds (I) shown in Table 1 prepared in accordance with Example 2 was diluted with water containing a surfactant (0.05%) and subjected to dropwise addition treatment by using pipet so that an effective concentration of the compound (I) in each herbicide became 500 g/ha at 1.5 leaf stage of barnyardgrass.
(§9) These plants were controlled in a glass house at an average temperature of 25° C. for 3 weeks, and then herbicidal effects thereof were investigated.
(§10) The herbicidal effects are evaluated according to the following 6 ranks as compared with non-treated district.
as §2

bulrush = test: Herbicidal test for paddy field; format: in vivo, Scrips juncoides; conditions: paddy field pot, 500 g/ha dropwise at 1.5 leaf stage of barnyardgrass, 3 weeks, rank vs non-treated
Procedure: as §7, §8, §9, §10, §2

monochoria = test: Herbicidal test for paddy field; format: in vivo, Monochoria vaginalis; conditions: paddy field pot, 500 g/ha dropwise at 1.5 leaf stage of barnyardgrass, 3 weeks, rank vs non-treated
Procedure: as §7, §8, §9, §10, §2

cotton [24] = test: Foliar spread test for upland field; format: in vivo; conditions: foliar spray 500 ppm, 3 weeks, rank vs non-treated
Description: as §2, §3, §4, §5, §6

barnyardgrass [25] = test: Herbicidal test for paddy field; format: in vivo, Echinochloa crusgalli; conditions: paddy field pot, 500 g/ha dropwise at 1.5 leaf stage of barnyardgrass, 3 weeks, rank vs non-treated
Procedure: as §7, §8, §9, §10, §2

Large crabgrass [26] = test: Foliar spread test for upland field; format: in vivo, Digitaria adscendens; conditions: foliar spray 500 ppm, 3 weeks, rank vs non-treated
Description: as §2, §3, §4, §5, §6

blackgrass [27] = test: Foliar spread test for upland field; format: in vivo, Alopecurus aegualis; conditions: foliar spray 500 ppm, 3 weeks, rank vs non-treated
Description: as §2, §3, §4, §5, §6

annual bluegrass [28] = test: Foliar spread test for upland field; format: in vivo, Poa annua; conditions: foliar spray 500 ppm, 3 weeks, rank vs non-treated
Description: as §2, §3, §4, §5, §6

| SMILES | Effects Corn (corn [1]) | Effects Cotton (cotton [2]) | Effects Solgum (solgum [3]) | Effects Soybean (soybean [4]) | Effects Sugar beat (sugar beat [5]) | Effects Wheat (wheat [6]) | Effects Large crabgrass (Large crabgrass [7]) | Effects Green foxtail (green foxtail [8]) | Effects Annual bluegrass (annual bluegrass [10]) | Effects Common lambsquarters (common lambsquartes [11]) | Effects Livid amaranth (livid amaranth [12]) | Effects Velvetleaf (velvetleaf [13]) | Effects Corn (corn [14]) | Effects Solgum (solgum [15]) | Effects Sugar beat (sugar beat [17]) | Effects Wheat (wheat [18]) | Effects Green foxtail (green foxtail [19]) | Effects Common lambsquarters (common lambsquartes [20]) | Effects Livid amaranth (livid amaranth [21]) | Effects Velvetleaf (velvetleaf [22]) | also measured |
| --- | --- | --- | --- | --- | --- | --- | --- | --- | --- | --- | --- | --- | --- | --- | --- | --- | --- | --- | --- | --- | --- |
| CCCC(Oc1ccc(F)c(C(F)(F)F)c1)c1nc2cc(C#N)c(C#N)cc2o1 (stereo not drawn) [Compound 318] | 0 | 0 | 0 | 0 | 5 | 0 | 2 | 4 | 4 | 5 | 5 | 5 | 1 | 1 | 5 | 1 | 5 | 3 | 5 | 2 | Effects Blackgrass (blackgrass [9]): 2; Effects Soybean (soybean [16]): 2 |
| CCCC(Oc1ccc(F)c(C(F)(F)F)c1)c1nc2cc(S(C)(=O)=O)c(C)cc2o1 (stereo not drawn) [Compound 488] | 0 | 1 | 0 | 0 | 5 | 0 | 5 | 5 | 5 | 4 | 5 | 5 | 1 | 1 | 5 | 1 |  | 3 | 5 | 3 | Effects Barnyardgrass (barnyardgrass [23]): 2; Effects Soybean (soybean [16]): 2; Effects Morning glory (morning glory): 2 |
| CCC(Oc1cccc(C#N)c1)c1nc2cc(S(C)(=O)=O)c(C)cc2o1 (stereo not drawn) [Compound 491] |  |  |  |  |  |  |  |  |  |  |  |  | 1 | 1 | 4 | 1 | 2 | 5 | 4 | 3 | Effect Young rice plant (young rice plant): 0; Effect Bulrush (bulrush): 3; Effect Monochoria (monochoria): 5; Effects Cotton (cotton [24]): 2; Effects Morning glory (morning glory): 3 |
| CCC(Oc1ccc(F)c(C(F)(F)F)c1)c1nc2cc(F)c(Cl)cc2o1 (stereo not drawn) [Compound 493] | 2 | 1 | 2 | 2 | 5 | 2 | 5 | 5 | 5 | 4 | 5 | 5 | 2 | 1 | 5 | 1 | 5 | 5 | 5 | 2 | Effect Barnyardgrass (barnyardgrass [25]): 5; Effect Monochoria (monochoria): 5; Effects Barnyardgrass (barnyardgrass [23]): 4; Effects Blackgrass (blackgrass [9]): 4; Effects Cotton (cotton [24]): 2; Effects Large crabgrass (Large crabgrass [26]): 2 |
| CCC(Oc1cccc(C(F)(F)F)c1)c1nc2cc(F)c(Cl)cc2o1 (stereo not drawn) [Compound 496] | 0 | 1 | 1 | 0 | 5 | 1 | 5 | 5 | 5 | 5 | 5 | 5 | 2 | 2 | 5 | 2 | 4 | 5 | 5 | 3 | Effects Barnyardgrass (barnyardgrass [23]): 3; Effects Blackgrass (blackgrass [9]): 5; Effects Large crabgrass (Large crabgrass [26]): 3; Effects Blackgrass (blackgrass [27]): 3; Effects Annual bluegrass (annual bluegrass [28]): 2 |

From patent US6706664B1, “Benzoxazole compounds, process for the preparation thereof and herbicides” (UBE Industries, Ltd., priority 1999, dated 2004)
